Assay results reported in patent US20210220328A1, “PYRROLE DERIVATIVES AS ACC INHIBITORS” (Almirall, S.A., priority 2017, published 2021).

Tested on: immortalized human sebocyte cell line, SZ95
Assay: In vitro assay of inhibition of lipid synthesis
Assay type: cell-based
Settings: 48 h, SZ95 sebocytes
Experimental: In Vitro Assay of Inhibition of Lipid Synthesis
To evaluate the inhibition of lipid synthesis, the immortalized human sebocyte cell line, SZ95 (stablished by Zouboulis, C. C. et al J Invest Dermatol 1999; 113:1011-20), was treated with arachidonic acid (AA) in presence or absence of compound. Lipids were detected by using a lipid sensing fluorophore.
Compounds were dissolved in dimethylsulfoxide (DMSO) 100%. Then the stocks were serial diluted 1/3 in DMSO 100%, and this battery of solutions were diluted 1/10 in culture medium, to minimize the percentage of the DMSO over cells.
10 k cells were plated in 384 well microtiter plates and incubated at 37° C. and 5% CO2 in DMEM/F12 supplemented with 10% FBS, 1.25 ng/ml of rhEGF and GA-1000 before of compound and stimulus addition. After 24 h, compounds dissolved in culture media were added over cells, diluting the solutions prepared 1/40 in the final volume of the assay. Then, cells and compounds were preincubated for 30 min at 37° C. and 5% CO2. After this prior incubation, the lipid synthesis was induced by 75 μM of AA final solution, preparing a solution 10× in culture media. Finally, SZ95 treated were incubated for 48 h at 37° C. and 5% CO2.
Neutral lipids were measured using AdipoRed™, purchased from LONZA. To do that, cells were washed with PBS and incubated with a solution of AdipoRed™ (final dilution 1/80 in PBS) for 30 min at room temperature. After the staining process, the fluorescence intensity (FI) was quantified using a fluorescence plate reader (excitation 485 nm; emission 535).
Activity of compounds were calculated as % of inhibition considering the maximal fluorescence for AA-stimulated cells and the minimum fluorescence for unstimulated cells as controls.

[1] = 75 μM arachidonic acid, AdipoRed, Table 2, finer classes for compounds with IC50 less than 250 nM
[2] = lipid synthesis induced by 75 μM arachidonic acid, AdipoRed fluorescence, Table 1

Structure (SMILES): CCCCCCCCCCCCOc1c[nH]c(C(=O)OCC(O)CO)c1Cl (stereo not drawn) [Example 84, 2,3-Dihydroxypropyl 3-chloro-4-(dodecyloxy)-1H-pyrrole-2-carboxylate]
- IC50 [1]: 100 to 250 nM
- IC50 [2]: < 250 nM

Structure (SMILES): CCCCCCCCCCCCOc1c[nH]c(C(=O)OC(C)OC(=O)OC(C)C)c1Cl (stereo not drawn) [Example 85, 1-((Isopropoxycarbonyl)oxy)ethyl 3-chloro-4-(dodecyloxy)-1H-pyrrole-2-carboxylate]
- IC50 [1]: < 50 nM
- IC50 [2]: < 250 nM

Structure (SMILES): CCCCCCCCCCCCOc1c[nH]c(C(=O)OC(C)OC(=O)OCCOCCOCC)c1Cl (stereo not drawn) [Example 86, 4-Oxo-3,5,8,11-tetraoxatridecan-2-yl 3-chloro-4-(dodecyloxy)-1H-pyrrole-2-carboxylate]
- IC50 [1]: < 50 nM
- IC50 [2]: < 250 nM

Structure (SMILES): CCCCCCCCCCCCOc1c[nH]c(C(=O)OC(C)OC(=O)OCCCO)c1Cl (stereo not drawn) [Example 87, 1-(((3-Hydroxypropoxy)carbonyl)oxy)ethyl 3-chloro-4-(dodecyloxy)-1H-pyrrole-2-carboxylate]
- IC50 [1]: < 50 nM
- IC50 [2]: < 250 nM

Structure (SMILES): CCCCCCCCCCCCOc1c[nH]c(C(=O)OCc2oc(=O)oc2C)c1Cl [Example 88, (5-Methyl-2-oxo-1,3-dioxol-4-yl)methyl 3-chloro-4-(dodecyloxy)-1H-pyrrole-2-carboxylate]
- IC50 [1]: < 50 nM
- IC50 [2]: < 250 nM

Structure (SMILES): CCCCCCCCCCCCCOc1c[nH]c(C(=O)O)c1Cl [Example 89, 3-Chloro-4-(tridecyloxy)-1H-pyrrole-2-carboxylic acid]
- IC50 [1]: < 50 nM
- IC50 [2]: < 250 nM

Structure (SMILES): CCCCCCCCCCCCCCOc1c[nH]c(C(=O)O)c1Cl [Example 90, 3-Chloro-4-(tetradecyloxy)-1H-pyrrole-2-carboxylic acid]
- IC50 [1]: 50 to 100 nM
- IC50 [2]: < 250 nM

Structure (SMILES): CCCCCCCCCCCCCCC(=O)c1c[nH]c(C(=O)O)c1F [Example 91, 3-Fluoro-4-pentadecanoyl-1H-pyrrole-2-carboxylic acid]
- IC50 [2]: 1000 to 5000 nM

Structure (SMILES): CCOCCCCCCCCCCCCc1c[nH]c(C(=O)O)c1F [Example 92, 4-(12-Ethoxydodecyl)-3-fluoro-1H-pyrrole-2-carboxylic acid]
- IC50 [1]: < 50 nM
- IC50 [2]: < 250 nM

Structure (SMILES): CCCCCCCCCCCC(F)Cc1c[nH]c(C(=O)O)c1F (stereo not drawn) [Example 93, 3-Fluoro-4-(2-fluorotridecyl)-1H-pyrrole-2-carboxylic acid]
- IC50 [1]: < 50 nM
- IC50 [2]: < 250 nM

Structure (SMILES): CCCCCCCCCCCC(F)(F)Cc1c[nH]c(C(=O)O)c1F [Example 94, 4-(2,2-Difluorotridecyl)-3-fluoro-1H-pyrrole-2-carboxylic acid]
- IC50 [1]: 100 to 250 nM
- IC50 [2]: < 250 nM

Structure (SMILES): CCCCCCCCCC(C)(C)CCc1c[nH]c(C(=O)O)c1F [Example 95, 4-(3,3-Dimethyldodecyl)-3-fluoro-1H-pyrrole-2-carboxylic acid]
- IC50 [1]: < 50 nM
- IC50 [2]: < 250 nM

Structure (SMILES): CCCCCCCCCCCC(C)(C)COc1c[nH]c(C(=O)O)c1F [Example 96, 4-((2,2-Dimethyltridecyl)oxy)-3-fluoro-1H-pyrrole-2-carboxylic acid]
- IC50 [1]: 50 to 100 nM
- IC50 [2]: < 250 nM

Structure (SMILES): CCCCCCCCCCCCC(F)(F)COc1c[nH]c(C(=O)O)c1F [Example 97, 4-((2,2-Difluorotetradecyl)oxy)-3-fluoro-1H-pyrrole-2-carboxylic acid]
- IC50 [1]: 100 to 250 nM
- IC50 [2]: < 250 nM

Structure (SMILES): CCCCCCCCCC(F)(F)COc1c[nH]c(C(=O)O)c1F [Example 98, 4-((2,2-Difluoroundecyl)oxy)-3-fluoro-1H-pyrrole-2-carboxylic acid]
- IC50 [2]: 250 to 1000 nM

Structure (SMILES): CCCCCCCCCCCCC(F)COc1c[nH]c(C(=O)O)c1Cl (stereo not drawn) [Example 99, 3-Chloro-4-((2-fluorotetradecyl)oxy)-1H-pyrrole-2-carboxylic acid]
- IC50 [1]: 100 to 250 nM
- IC50 [2]: < 250 nM

Structure (SMILES): CCOCCCCCCCCCOc1c[nH]c(C(=O)O)c1Cl [Example 100, 3-Chloro-4-((9-ethoxynonyl)oxy)-1H-pyrrole-2-carboxylic acid]
- IC50 [2]: 250 to 1000 nM

Structure (SMILES): CCCCCCCCCCCCCc1c[nH]c(C(=O)O)c1C [Example 101, 3-Methyl-4-tridecyl-1H-pyrrole-2-carboxylic acid]
- IC50 [2]: 1000 to 5000 nM

Structure (SMILES): CCCCCCCCCCC(C)(C)Cc1c[nH]c(C(=O)O)c1F [Example 102, 4-(2,2-Dimethyldodecyl)-3-fluoro-1H-pyrrole-2-carboxylic acid]
- IC50 [1]: < 50 nM
- IC50 [2]: < 250 nM

Structure (SMILES): CCCCCCCCCCCOc1c[nH]c(C(=O)OCC(F)(F)F)c1F [Example 103, 2,2,2-Trifluoroethyl 3-fluoro-4-(undecyloxy)-1H-pyrrole-2-carboxylate]
- IC50 [1]: < 50 nM
- IC50 [2]: < 250 nM

Structure (SMILES): CCCCCCCCCCCOc1c[nH]c(C(=O)OCCOCCOCC)c1F [Example 104, 2-(2-Ethoxyethoxy)ethyl 3-fluoro-4-(undecyloxy)-1H-pyrrole-2-carboxylate]
- IC50 [1]: 100 to 250 nM
- IC50 [2]: < 250 nM

Structure (SMILES): CCCCCCCCCCCOc1c[nH]c(C(=O)OC(C)OC(=O)OC(C)C)c1F (stereo not drawn) [Example 105, 1-((Isopropoxycarbonyl)oxy)ethyl 3-fluoro-4-(undecyloxy)-1H-pyrrole-2-carboxylate]
- IC50 [1]: < 50 nM
- IC50 [2]: < 250 nM

Structure (SMILES): CCCCCCCCCCCOc1c[nH]c(C(=O)OC(C)OC(=O)OCCOC)c1F (stereo not drawn) [Example 106, 1-(((2-Methoxyethoxy)carbonyl)oxy)ethyl 3-fluoro-4-(undecyloxy)-1H-pyrrole-2-carboxylate]
- IC50 [1]: < 50 nM
- IC50 [2]: < 250 nM

Structure (SMILES): CCCCCCCCCCCOc1c[nH]c(C(=O)OC(C)OC(=O)OCCOCCOCC)c1F (stereo not drawn) [Example 107, 4-Oxo-3,5,8,11-tetraoxatridecan-2-yl 3-fluoro-4-(undecyloxy)-1H-pyrrole-2-carboxylate]
- IC50 [1]: < 50 nM
- IC50 [2]: < 250 nM

Structure (SMILES): CCCCCCCCCCCCCc1c[nH]c(C(=O)OCC(F)(F)F)c1Cl [Example 108, 2,2,2-Trifluoroethyl 3-chloro-4-tridecyl-1H-pyrrole-2-carboxylate]
- IC50 [2]: 250 to 1000 nM

Structure (SMILES): CCCCCCCCCCCCCc1c[nH]c(C(=O)OCCOCCOCC)c1Cl [Example 109, 2-(2-Ethoxyethoxy)ethyl 3-chloro-4-tridecyl-1H-pyrrole-2-carboxylate]
- IC50 [2]: 250 to 1000 nM

Structure (SMILES): CCCCCCCCCCCCCc1c[nH]c(C(=O)OC(C)OC(=O)OC(C)C)c1Cl (stereo not drawn) [Example 110, 1-((Isopropoxycarbonyl)oxy)ethyl 3-chloro-4-tridecyl-1H-pyrrole-2-carboxylate]
- IC50 [1]: 100 to 250 nM
- IC50 [2]: < 250 nM

Structure (SMILES): CCCCCCCCCCCCCc1c[nH]c(C(=O)OC(C)OC(=O)OCCOC)c1Cl (stereo not drawn) [Example 111, 1-(((2-methoxyethoxy)carbonyl)oxy)ethyl 3-chloro-4-tridecyl-1H-pyrrole-2-carboxylate]
- IC50 [1]: 100 to 250 nM
- IC50 [2]: < 250 nM

Structure (SMILES): CCCCCCCCCCCCCc1c[nH]c(C(=O)OC(C)OC(=O)OCCOCCOCC)c1Cl (stereo not drawn) [Example 112, 4-Oxo-3,5,8,11-tetraoxatridecan-2-yl 3-chloro-4-tridecyl-1H-pyrrole-2-carboxylate]
- IC50 [1]: 100 to 250 nM
- IC50 [2]: < 250 nM

Structure (SMILES): CCCCCCCCCCCCc1cc(Cl)c(C(=O)OCC(F)(F)F)[nH]1 [Example 113, 2,2,2-Trifluoroethyl 3-chloro-5-dodecyl-1H-pyrrole-2-carboxylate]
- IC50 [2]: 1000 to 5000 nM

Structure (SMILES): CCCCCCCCCCCCc1cc(Cl)c(C(=O)OCCOCCOCC)[nH]1 [Example 114, 2-(2-Ethoxyethoxy)ethyl 3-chloro-5-dodecyl-1H-pyrrole-2-carboxylate]
- IC50 [2]: 1000 to 5000 nM

Structure (SMILES): CCCCCCCCCCCCc1cc(Cl)c(C(=O)OC(C)OC(=O)OC(C)C)[nH]1 (stereo not drawn) [Example 115, 1-((Isopropoxycarbonyl)oxy)ethyl 3-chloro-5-dodecyl-1H-pyrrole-2-carboxylate]
- IC50 [1]: 100 to 250 nM
- IC50 [2]: < 250 nM

Structure (SMILES): CCCCCCCCCCCCc1cc(Cl)c(C(=O)OC(C)OC(=O)OCCOC)[nH]1 (stereo not drawn) [Example 116, 1-(((2-Methoxyethoxy)carbonyl)oxy)ethyl 3-chloro-5-dodecyl-1H-pyrrole-2-carboxylate]
- IC50 [1]: 50 to 100 nM
- IC50 [2]: < 250 nM

Structure (SMILES): CCCCCCCCCCCCc1cc(Cl)c(C(=O)OC(C)OC(=O)OCCOCCOCC)[nH]1 (stereo not drawn) [Example 117, 4-Oxo-3,5,8,11-tetraoxatridecan-2-yl 3-chloro-5-dodecyl-1H-pyrrole-2-carboxylate]
- IC50 [1]: 100 to 250 nM
- IC50 [2]: < 250 nM

Structure (SMILES): CCCCCCCCCCCCc1cc(Cl)c(C(=O)OCC(O)CO)[nH]1 (stereo not drawn) [Example 118, 2,3-Dihydroxypropyl 3-chloro-5-dodecyl-1H-pyrrole-2-carboxylate]
- IC50 [2]: 250 to 1000 nM

Structure (SMILES): CCCCCCCCCCCc1cc(F)c(C(=O)O)[nH]1 [Example 119, 3-Fluoro-5-undecyl-1H-pyrrole-2-carboxylic acid]
- IC50 [1]: 50 to 100 nM
- IC50 [2]: < 250 nM

Structure (SMILES): CCCCCCCCCCCCCc1cc(F)c(C(=O)O)[nH]1 [Example 120, 3-Fluoro-5-tridecyl-1H-pyrrole-2-carboxylic acid]
- IC50 [1]: < 50 nM
- IC50 [2]: < 250 nM

Structure (SMILES): CCCCCCCCCCCCCCc1cc(F)c(C(=O)O)[nH]1 [Example 121, 3-Fluoro-5-tetradecyl-1H-pyrrole-2-carboxylic acid]
- IC50 [1]: < 50 nM
- IC50 [2]: < 250 nM

Structure (SMILES): CCCCCCCCCCCCCCCc1cc(F)c(C(=O)O)[nH]1 [Example 122, 3-Fluoro-5-pentadecyl-1H-pyrrole-2-carboxylic acid]
- IC50 [1]: 50 to 100 nM
- IC50 [2]: < 250 nM
